Reference: patent US20220340598A1, “PYRAZOLOPYRIDINONE COMPOUNDS” (Janssen Pharmaceutica NV, priority 2017, published 2022)

Key:
[1] = target: T1, NIH/3T3 cells overexpressing FGFR3 WT-TACC3 fusion protein (Homo sapiens, UniProt P22607); assay: NIH/3T3 FGFR3 WT-TACC3 cell proliferation assay; format: cell-based; conditions: 72-hr incubation, CellTiter Glo; read-out: NIH/3T3 FGFR3 WT-TACC3 CTG (IC50)
T1 construct: fused on or other part: Q9Y6A5 (Transforming acidic coiled-coil-containing protein 3)
Procedure: NIH/3T3 FGFR3 WT-TACC3 Cell Proliferation Assay
(§1) In day 1, 90 μL of cell suspension (NIH/3T3 cells overexpressing FGFR3 WT-TACC3 fusion protein) (total 30,000 cells per well in growth medium (DMEM containing 1% Glutamax, 10% FBS and 1% Pen/Strep)) was seeded in a 96-well plate and then incubated overnight at 37° C. and 5% CO2. In day 2, 10 μL of growth medium containing 10-fold stock solution of testing compound was added into cell cultures (9 dose points with 4× serial dilution, starting with 10 μM, 0.1% DMSO final). After 72-hr incubation at 37° C. and 5% CO2, in day 5 a volume of 50 μL CellTiter Glo (CTG) reagent was added into cell-containing 96-well plate and the plate was incubated at room temperature for 10 minutes before RLUs (relative light unit) were measured on a microplate reader with luminescence detection module. The RLU value was normalized to survival % and concentration-response curve was plotted using Prism to calculate IC50 (M), pIC50 (−log IC50) and HillSlope value.

[2] = target: T2, human FGFR3 V555M enzyme (cytoplasmic domain carrying V555M mutation) (Homo sapiens, UniProt P22607, V555M); assay: FGFR3 V555M mobility shift assay (enzymatic assay); format: biochemical; conditions: 30 μM ATP, 45 minutes at 30° C., Caliper EZ reader II
T2 construct: human FGFR3 V555M enzyme (cytoplasmic domain carrying V555M mutation, from Carna Biosciences)
Procedure: FGFR3 V555M Mobility Shift Assay (Enzymatic Assay)
(§2) In a final reaction volume of 25 μL, 0.04 ng/μL human FGFR3 V555M enzyme (cytoplasmic domain carrying V555M mutation, from Carna Biosciences) was incubated with 30 μM ATP, 1 μM FL-peptide 30 substrate and 250 nL of testing compound (1% DMSO final) in assay buffer (100 mM HEPES pH 7.4, 10 mM MgCl2, 0.003% Brij35, 1 mM DTT). After incubation for 45 minutes at 30° C. the reaction was stopped with 10 μL of 0.5M EDTA pH 8.0, and then 25 μL of reaction mixture was transferred to reading plate and measured on Caliper EZ reader II.

[3] = target: T3, human FGFR3 wild type enzyme (cytoplasmic domain) (Homo sapiens, UniProt P22607); assay: FGFR3 wild type mobility shift assay (enzymatic assay); format: biochemical; conditions: 75 μM ATP, 50 minutes at 30° C., Caliper EZ reader II
T3 construct: human FGFR3 wild type enzyme (cytoplasmic domain, from Carna Biosciences)
Procedure: FGFR3 Wild Type Mobility Shift Assay (Enzymatic Assay)
as §2, with “FGFR3 wild type” for “FGFR3 V555M”, “(cytoplasmic domain,” for “(cytoplasmic domain carrying V555M mutation,”, “with 75” for “with 30”, “for 50” for “for 45”

[4] = target: T4, NIH/3T3 cells overexpressing FGFR3 V555M-TACC3 fusion protein (Homo sapiens, UniProt P22607, V555M, cells depend on it); assay: NIH/3T3 FGFR3 V555M-TACC3 cell proliferation assay; format: cell-based; conditions: 72-hr incubation, CellTiter Glo; read-out: NIH/3T3 FGFR3 V555M-TACC3 CTG (IC50)
T4 construct: fused on or other part: Q9Y6A5 (Transforming acidic coiled-coil-containing protein 3)
Procedure: NIH/3T3 FGFR3 V555M-TACC3 Cell Proliferation Assay
as §1, with “V555M-TACC3” for “WT-TACC3”

T2 sequence (P22607 397-806 V555M): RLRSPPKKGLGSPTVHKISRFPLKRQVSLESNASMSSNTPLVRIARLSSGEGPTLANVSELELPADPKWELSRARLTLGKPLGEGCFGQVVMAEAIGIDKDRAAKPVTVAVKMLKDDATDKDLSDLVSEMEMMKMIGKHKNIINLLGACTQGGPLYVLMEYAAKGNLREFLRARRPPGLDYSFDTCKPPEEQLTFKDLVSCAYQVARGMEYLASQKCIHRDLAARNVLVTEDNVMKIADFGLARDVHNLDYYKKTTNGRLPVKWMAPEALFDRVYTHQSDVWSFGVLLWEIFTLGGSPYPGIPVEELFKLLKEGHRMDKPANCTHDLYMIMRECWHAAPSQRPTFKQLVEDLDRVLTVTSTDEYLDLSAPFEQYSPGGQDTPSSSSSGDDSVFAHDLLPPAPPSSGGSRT
T3 sequence (P22607 397-806): as the sequence (P22607 397-806 V555M) above, with M159V counted along it
T4 sequence (P22607 whole entry V555M, the tested form may be a part): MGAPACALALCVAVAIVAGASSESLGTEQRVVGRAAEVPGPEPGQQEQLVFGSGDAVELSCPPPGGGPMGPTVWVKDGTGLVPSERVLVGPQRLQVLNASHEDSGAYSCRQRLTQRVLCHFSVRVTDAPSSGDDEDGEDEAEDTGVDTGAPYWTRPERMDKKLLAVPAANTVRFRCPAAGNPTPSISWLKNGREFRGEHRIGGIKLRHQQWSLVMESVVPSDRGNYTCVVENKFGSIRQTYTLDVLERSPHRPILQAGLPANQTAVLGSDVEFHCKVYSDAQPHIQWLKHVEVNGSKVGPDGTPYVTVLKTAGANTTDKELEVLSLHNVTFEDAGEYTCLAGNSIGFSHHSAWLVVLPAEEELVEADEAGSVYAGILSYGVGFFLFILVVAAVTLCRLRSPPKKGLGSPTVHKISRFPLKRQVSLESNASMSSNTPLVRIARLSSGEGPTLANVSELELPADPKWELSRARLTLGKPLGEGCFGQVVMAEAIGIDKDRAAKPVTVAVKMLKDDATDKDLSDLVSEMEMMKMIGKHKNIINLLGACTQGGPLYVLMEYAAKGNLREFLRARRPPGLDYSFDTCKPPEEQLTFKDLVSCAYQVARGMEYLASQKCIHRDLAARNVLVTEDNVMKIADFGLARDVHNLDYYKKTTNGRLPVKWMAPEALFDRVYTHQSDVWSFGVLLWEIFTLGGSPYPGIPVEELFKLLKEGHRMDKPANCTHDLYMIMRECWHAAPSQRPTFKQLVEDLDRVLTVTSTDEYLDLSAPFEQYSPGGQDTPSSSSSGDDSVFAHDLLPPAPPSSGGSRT
T1 sequence (P22607 whole entry, change not shown, the tested form may be a part): as the sequence (P22607 whole entry V555M, the tested form may be a part) above, with M555V counted along it

Question: `CC[C@H](Nc1c(-c2nc3ccc(OCCOC)cc3[nH]2)c(=O)[nH]c2cn(C)nc12)c1ncccn1` (single isomer, unassigned) [Compound 48, (S*)-6(6-(2-methoxyethoxy)-1H-benzol-2-yl)-2-methyl-7-((1-(pyrimidin-2-yl)propyl)amino)-2H-pyrazolo[4,3-b]pyridin-5(4H)-one] was tested. Which GI50 [1] did it give?
Answer: 17.1 nM

Question: And the IC50 [2]?
Answer: 0.634 nM

Question: What about the IC50 [3] of the same compound?
Answer: 1.45 nM

Question: And the GI50 [4]?
Answer: 112 nM

Question: Which results are given for `COc1ccc2nc(-c3c(NC(C)c4ncccn4)c4nn(C)cc4[nH]c3=O)[nH]c2c1` (single isomer, unassigned) [Compound 1, (S*)-6-(6-Methoxy-1H-benzo[d]imidazol-2-yl)-2-methyl-7-((1-(pyrimidin-2-yl)ethyl)-amino)-2H-pyrazolo[4,3-b]pyridin-5(4H)-one]?
Answer: GI50 [1]: 4.72 nM; IC50 [2]: 0.27 nM; IC50 [3]: 0.75 nM; GI50 [4]: 4.07 nM

Question: How did the GI50 [1] turn out when `CC(C)C(Nc1c(-c2nc3ccc(C(=O)N(C)C)cc3[nH]2)c(=O)[nH]c2cn(C)nc12)c1ncccn1` (single isomer, unassigned) [Compound 10, (S*)—N,N-dimethyl-2-(2-methyl-7-((2-methyl-1-(pyrimidin-2-yl)propyl)amino)-5-oxo-4,5-dihydro-2H-pyrazolo[4,3-b]pyridin-6-yl)-1H-benzo[d]imidazole-6-carboxamide] was run?
Answer: 54.2 nM

Question: And the IC50 [2]?
Answer: 0.673 nM

Question: What about the IC50 [3] of the same compound?
Answer: 2.57 nM

Question: And the GI50 [4]?
Answer: 31.9 nM

Question: For `COc1ccc2nc(-c3c(N[C@H](c4ncccn4)C(C)C)c4nn(C)cc4[nH]c3=O)[nH]c2c1` (single isomer, unassigned) [Compound 15, (S*)-6(5-Methoxy-1H-benzo[d]imidazol-2-yl)-2-methyl-7-((2-methyl-1-(pyrimidin-2-yl)propyl)amino)-2H-pyrazolo[4,3-b]pyridin-5(4H)-one], which GI50 [1] is on record?
Answer: 65 nM

Question: What about the IC50 [2] of the same compound?
Answer: 0.753 nM

Question: What about the IC50 [3] of the same compound?
Answer: 4.52 nM

Question: And the GI50 [4]?
Answer: 45.9 nM

Question: How did the GI50 [1] turn out when `CCn1cc2[nH]c(=O)c(-c3nc4cc(OC)c(OC)cc4[nH]3)c(NC(C)c3cocn3)c2n1` (single isomer, unassigned) [Compound 5A, (S*)-6-(5,6-Dimethoxy-1H-benzo[d]imidazol-2-yl)-2-ethyl-7-((1-(oxazol-4-yl)ethyl)amino)-2H-pyrazolo[4,3-b]pyridin-5(4H)-one] was run?
Answer: 33.6 nM

Question: What about the IC50 [2] of the same compound?
Answer: 1.56 nM

Question: And the IC50 [3]?
Answer: 7.67 nM

Question: And the GI50 [4]?
Answer: 50.4 nM

Question: How did the GI50 [1] turn out when `CC(C)C(Nc1c(-c2nc3ccc(C(N)=O)cc3[nH]2)c(=O)[nH]c2cn(C)nc12)c1ncccn1` (single isomer, unassigned) [Compound 9, (S*)-2-(2-methyl-7-((2-methyl-1-(pyrimidin-2-yl)propyl)amino)-5-oxo-4,5-dihydro-2H-pyrazolo[4,3-b]pyridin-6-yl)-1H-benzo[d]imidazole-6-carboxamide] was run?
Answer: 202 nM

Question: And the IC50 [2]?
Answer: 0.803 nM

Question: And the IC50 [3]?
Answer: 4.33 nM

Question: And the GI50 [4]?
Answer: 200 nM
